Data published in publication PMC4556830, “The Effect of MGCD0103 on CYP450 Isoforms Activity of Rats by Cocktail Method” (BioMed Research International, 2015).

How the values were obtained:
liver = experiment: Liver histopathology (HE staining) after MGCD0103; assay type: in vivo, rat
Method: After pharmacokinetic properties analysis, rats were deeply anesthetized with 10% chloral hydrate (i.p., […]). The livers of control group and MGCD0103 treated groups were rapidly isolated and immersed in freshly prepared 4% w/v formaldehyde (0.1 M phosphate buffer, pH 7.2) for 48 h and then embedded in paraffin. Then 5 μm thick histologic sections were prepared and stained with routine HE method (hematoxylin and eosin). The morphological changes of liver were observed under light microscope.

CYP2D4 = molecular target: T1, CYP2D4 (Rattus norvegicus, UniProt Q64680); experiment: Cocktail method, metoprolol probe: effect of MGCD0103 on CYP2D4 activity; assay type: in vivo; settings: 7-day intragastric MGCD0103 20, 40, 80 mg/kg
T1 construct: we investigated the effects of 7-day intragastric administration of MGCD0103 on the activity of CYP enzymes in vivo; from tissue; host or cells: living rats (in vivo)
T1 sequence (Q64680 1-500): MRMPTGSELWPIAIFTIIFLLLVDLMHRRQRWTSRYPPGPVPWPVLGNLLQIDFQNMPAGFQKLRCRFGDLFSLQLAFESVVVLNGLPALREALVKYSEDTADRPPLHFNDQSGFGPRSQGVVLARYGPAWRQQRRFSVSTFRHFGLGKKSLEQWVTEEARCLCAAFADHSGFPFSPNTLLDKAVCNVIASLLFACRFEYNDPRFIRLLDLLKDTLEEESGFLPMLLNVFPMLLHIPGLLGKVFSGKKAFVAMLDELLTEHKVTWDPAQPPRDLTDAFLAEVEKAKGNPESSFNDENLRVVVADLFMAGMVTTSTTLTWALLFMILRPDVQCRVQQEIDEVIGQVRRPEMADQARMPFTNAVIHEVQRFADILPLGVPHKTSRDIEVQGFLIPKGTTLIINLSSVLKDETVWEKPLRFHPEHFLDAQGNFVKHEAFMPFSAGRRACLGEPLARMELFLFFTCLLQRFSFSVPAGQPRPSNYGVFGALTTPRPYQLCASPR
Method: (§1) Forty rats (220 ± 20 g) were randomly divided into four different dosages of MGCD0103 groups (Low group, Medium group, High group, and control group with 10 rats in each group). MGCD0103 was dissolved in corn oil as suspension at three different concentrations (20, 40, and 80 mg/mL). Three different MGCD0103 groups (Low group, Medium group, and High group) were respectively given MGCD0103 20, 40, and 80 mg/kg one time by intragastric administration at every morning and last for 7 days. Control group were given saline by same administration method.
(§2) Blood (0.3 mL) samples were collected into heparinized 1.5 mL polythene tubes from the tail vein at 0.0833, 0.5, 1, 2, 3, 4, 6, 8, 12, 24, and 48 h after intragastric administration of six probe drugs. 100 μL of plasma was obtained from blood sample after centrifugation at 4000 g for 10 min. In a 1.5 mL centrifuge tube, 200 μL of acetonitrile (containing 50 ng/mL IS) was added into 100 μL of collected plasma sample. After vortex-mixing for 1.0 min, the sample was centrifuged at 13000 g for 15 min. Then supernatant (2 μL) was injected into the UPLC-MS/MS system for analysis.
(§3) Concentration of plasma probe drugs versus time was analyzed by Version 3.0 Data Analysis System (Wenzhou Medical University, China). The main pharmacokinetic parameters of the MGCD0103 group and control group were analyzed by SPSS l8.0 statistical software.

CYP1A2 = molecular target: T2, CYP1A2 (Rattus norvegicus, UniProt P04799); experiment: Cocktail method, phenacetin probe: effect of MGCD0103 on CYP1A2 activity; assay type: in vivo; settings: 7-day intragastric MGCD0103 20, 40, 80 mg/kg
T2 construct: we investigated the effects of 7-day intragastric administration of MGCD0103 on the activity of CYP enzymes in vivo; from tissue; host or cells: living rats (in vivo)
T2 sequence (P04799 1-513): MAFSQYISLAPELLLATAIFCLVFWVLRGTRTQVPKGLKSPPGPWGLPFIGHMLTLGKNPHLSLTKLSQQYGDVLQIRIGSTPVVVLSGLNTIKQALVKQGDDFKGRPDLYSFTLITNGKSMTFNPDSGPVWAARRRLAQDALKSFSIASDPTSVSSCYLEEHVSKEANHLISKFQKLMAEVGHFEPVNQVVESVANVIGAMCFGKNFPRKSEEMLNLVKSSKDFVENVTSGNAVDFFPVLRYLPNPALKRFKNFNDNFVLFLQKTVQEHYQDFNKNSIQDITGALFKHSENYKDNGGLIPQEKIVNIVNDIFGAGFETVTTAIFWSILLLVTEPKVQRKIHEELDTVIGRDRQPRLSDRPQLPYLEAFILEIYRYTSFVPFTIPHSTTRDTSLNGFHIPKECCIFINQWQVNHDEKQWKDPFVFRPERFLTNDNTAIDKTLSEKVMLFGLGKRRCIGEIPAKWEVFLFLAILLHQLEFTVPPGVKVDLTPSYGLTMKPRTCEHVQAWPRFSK
Method: as §1, §2, §3

CYP3A2 = molecular target: T3, CYP3A2 (Rattus norvegicus, UniProt P05183); experiment: Cocktail method, testosterone probe: effect of MGCD0103 on CYP3A2 activity; assay type: in vivo; settings: 7-day intragastric MGCD0103 20, 40, 80 mg/kg
T3 construct: we investigated the effects of 7-day intragastric administration of MGCD0103 on the activity of CYP enzymes in vivo; from tissue; host or cells: living rats (in vivo)
T3 sequence (P05183 1-504): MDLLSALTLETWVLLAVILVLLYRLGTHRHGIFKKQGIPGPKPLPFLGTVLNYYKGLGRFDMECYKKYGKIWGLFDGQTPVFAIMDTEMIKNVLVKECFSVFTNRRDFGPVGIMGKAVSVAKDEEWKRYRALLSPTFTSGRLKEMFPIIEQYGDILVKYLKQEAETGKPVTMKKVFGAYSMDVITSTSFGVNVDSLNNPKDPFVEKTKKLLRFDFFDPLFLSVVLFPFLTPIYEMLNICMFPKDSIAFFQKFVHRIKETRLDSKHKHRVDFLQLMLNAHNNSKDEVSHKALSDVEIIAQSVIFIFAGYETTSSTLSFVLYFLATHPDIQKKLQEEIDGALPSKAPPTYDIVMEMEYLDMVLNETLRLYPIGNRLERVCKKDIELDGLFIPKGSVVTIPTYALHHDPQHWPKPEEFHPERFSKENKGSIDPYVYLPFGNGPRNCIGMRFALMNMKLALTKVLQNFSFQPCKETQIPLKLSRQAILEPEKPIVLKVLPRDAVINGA
Method: as §1, §2, §3

CYP2C11 = experiment: Cocktail method, tolbutamide probe: effect of MGCD0103 on CYP2C11 activity; assay type: in vivo, rat
Method: as §1, §2, §3

CYP2B1 = molecular target: T4, CYP2B1 (Rattus norvegicus, UniProt P00176); experiment: Cocktail method, bupropion probe: effect of MGCD0103 on CYP2B1 activity; assay type: in vivo; settings: 7-day intragastric MGCD0103 20, 40, 80 mg/kg
T4 construct: we investigated the effects of 7-day intragastric administration of MGCD0103 on the activity of CYP enzymes in vivo; from tissue; host or cells: living rats (in vivo)
T4 sequence (P00176 1-491): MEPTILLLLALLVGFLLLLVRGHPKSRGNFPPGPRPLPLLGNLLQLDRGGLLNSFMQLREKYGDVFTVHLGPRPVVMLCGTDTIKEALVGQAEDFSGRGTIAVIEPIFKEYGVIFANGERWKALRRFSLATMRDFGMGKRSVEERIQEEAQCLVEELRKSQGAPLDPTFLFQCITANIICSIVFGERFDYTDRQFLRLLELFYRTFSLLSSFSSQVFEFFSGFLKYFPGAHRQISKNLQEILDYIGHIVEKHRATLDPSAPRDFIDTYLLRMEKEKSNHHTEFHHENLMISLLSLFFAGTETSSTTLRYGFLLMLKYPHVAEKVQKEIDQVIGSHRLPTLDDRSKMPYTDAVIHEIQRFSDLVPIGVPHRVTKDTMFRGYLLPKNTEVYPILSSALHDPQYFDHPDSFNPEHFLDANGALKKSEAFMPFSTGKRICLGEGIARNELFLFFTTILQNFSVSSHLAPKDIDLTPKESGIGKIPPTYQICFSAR
Method: as §1, §2, §3

- morphological changes of liver (liver; low dose group, 20 mg/kg i.g. 7 days): liver cells become slightly edematous
- effect on activity of CYP2D4 enzyme (CYP2D4): not able to induce or inhibit
- effect on activity of CYP1A2 enzyme (CYP1A2): not able to induce or inhibit
- effect on activity of CYP3A2 enzyme (CYP3A2): not able to induce or inhibit
- effect on metabolism of tolbutamide (CYP2C11; 7-day intragastric administration of MGCD0103, high dosage (80 mg/kg), rat): slightly induces
- effect on activities of CYP2C11 (CYP2C11; continuous 7-day intragastric administration of MGCD0103, rats): slightly induces
- effect on activity of CYP2B1 enzyme (CYP2B1): not able to induce or inhibit
SMILES: Nc1ccccc1NC(=O)c1ccc(CNc2nccc(-c3cccnc3)n2)cc1 [MGCD0103, Mocetinostat]
- hepatotoxicity (pathological changes of liver) (liver; 20, 40, 80 mg/kg i.g. 7 days, probe drugs also given): hepatotoxic and its toxicity is dose-dependent
- morphological changes of liver (liver; high dose group, 80 mg/kg i.g. 7 days): liver cells with steatosis and small, atrophy, hyperchromatic karyopyknosis
- morphological changes of liver (liver; middle dose group, 40 mg/kg i.g. 7 days): liver cells experienced extensive fatty changes
